Source: US11472766B2, “Lipid nanoparticle composition” (Suzhou Abogen Biosciences Co., Ltd., priority 2020, dated 2022)

What was measured:
[1] = Lipid nanoparticle size by dynamic light scattering (Malvern Zetasizer Nano ZS); type: physicochemical; conditions: LNP: cationic lipid/DSPC/cholesterol/PEG-lipid 50:10:38.5:1.5, hEPO mRNA
How it was run: (§1)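 LNPs of cationic lipid:DSPC:cholesterol:PEG-lipid (50:10:38.5:1.5 molar) with mRNA in 10–50 mM citrate pH 4, microfluidic mixing at 1:3 ethanol:aqueous, lipid:mRNA weight ratio ~10:1–30:1, dialysed into DPBS and 0.2 μm filtered. Size by DLS, 173° backscatter; encapsulation efficiency by Ribogreen assay.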

[2] = Encapsulation efficiency of lipid nanoparticles (Quant-it Ribogreen RNA quantification assay); type: physicochemical; conditions: LNP encapsulating hEPO mRNA
How it was run: as §1

[3] = test system: human erythropoietin (hEPO) mRNA; assay: Animal study: hEPO expression after tail vein injection of LNPs encapsulating hEPO mRNA (serum ELISA); type: in vivo; conditions: hEPO level, female ICR mice, 0.5 mg/kg, 6 hours post administration; for Expression at 6 h (μg/ml): class symbols, Table 3
How it was run: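 Female ICR mice (6-8 weeks) received LNPs carrying hEPO mRNA by tail vein injection at 0.5 mg/kg, with MC3 LNPs dosed the same way as positive control. Blood was drawn at set times (e.g., 6 h) and serum separated. hEPO was quantified by ELISA and reported as μg/ml.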

[4] = Apparent pKa of LNP formulations (TNS fluorescence assay); conditions: LNP cationic lipid/DSPC/cholesterol/DMG-PEG 50/10/38.5/1.5 mol %

| Structure (SMILES) | size nm ([1]; Table 3) [nm] | Encapsulation Efficiency ([2]; Table 3) [%] | Expression at 6 h (μg/ml) [3] | Apparant Pka ([4]; Table 3) | polydispersity ([1]; Table 3) | polydispersity ([1]; Table 2) | size nm ([1]; Table 2) [nm] | Encapsulation Efficiency ([2]; Table 2) [%] | Expression at 6 h ([3]; Table 2) [µg/mL] | Apparant Pka ([4]; Table 2) |
| --- | --- | --- | --- | --- | --- | --- | --- | --- | --- | --- |
| CCCCCCC(CCCCCC)CCCCCC(=O)OCCCCCN(CCCCCOC(=O)CCCCCC(CCCCCC)CCCCCC)CCN(CCO)C1CCC1 [Compound 86] | 76.56 | 93.8 | C (≥0.1 and <1) | 6.32 | – | – | – | – | – | – |
| CCCCC(CCCC)CCCCCC(=O)OCCCCCN(CCCCCOC(=O)CCCCCC(CCCC)CCCC)CCN(CCO)C1CCC1 [Compound 85] | 82.91 | 93.7 | B (≥1 and <2) | 6.46 | 0.065 | – | – | – | – | – |
| CCCCCC/C=C\COC(=O)CCCCCN(CCCC(=O)OC(CCCCCCC)CCCCCCC)CCN(CCO)C1CCC1 [Compound 46] | 110.4 | 93.8 | C (≥0.1 and <1) | 6.307 | 0.073 | – | – | – | – | – |
| CCCCCCC(CCCCCC)COC(=O)CCCCCN(CCCCCC(=O)OCC(CCCCCC)CCCCCC)CCN(CCO)C1CCC1 [Compound 77] | 69.81 | 90.06 | A (≥2) | 6.352 | 0.038 | – | – | – | – | – |
| CCCCCCCCC(CCCCCC)COC(=O)CCCCCN(CCCCCC(=O)OCC(CCCCCC)CCCCCCCC)CCN(C)C1CC(O)C1 (stereo not drawn) [Compound 59] | 93.24 | 97.7 | B (≥1 and <2) | 6.682 | 0.008 | – | – | – | – | – |
| CCCCCCCCC(CCCCCC)COC(=O)CCCCCN(CCCCCC(=O)OCC(CCCCCC)CCCCCCCC)C(=O)CCN(CCO)C1CCC1 (stereo not drawn) [Compound 12] | 75.86 | 99.80 | D (<0.1) | 5.801 | 0.015 | – | – | – | – | – |
| CCCCC/C=C\CCCC(CCC/C=C\CCCCC)OC(=O)CCCCCN(CCCCCC(=O)OCCC/C=C/CCCCC)CCN(CCO)C1CCC1 [Compound 63] | 94.11 | 85.9 | B (≥1 and <2) | 6.406 | 0.088 | – | – | – | – | – |
| CCCCCCCCCCCOC(=O)CCCCCN(CCCCCC(=O)OCC(CCCCCCCC)CCCCCCCC)CCN(CCO)C1CCCC1 [Compound 82] | 87.68 | 94.7 | A (≥2) | 6.406 | 0.025 | – | – | – | – | – |
| CCCCCCCCC(CCCCCC)COC(=O)CCCCCN(CCCCCC(=O)OCC(CCCCCC)CCCCCCCC)CCN(C)CCO (stereo not drawn) [Compound B] | – | – | – | – | – | 0.060 | 79.0 | 100.0 | 0.44 | 7.33 |
| CCCCCCCCC(CCCCCC)C(CC)OC(=O)CCCCCN(CCCCCC(=O)OC(CC)C(CCCCCC)CCCCCCCC)CCN(CCO)C1CCC1 (stereo not drawn) [Compound 39] | 64.4 | 98.8 | C (≥0.1 and <1) | 6.061 | 0.043 | – | – | – | – | – |
| CCCCCCCCC(CCCCCC)CC(=O)OCCCCCN(CCCCCOC(=O)CC(CCCCCC)CCCCCCCC)CCN(CCO)C1CCC1 (stereo not drawn) [Compound 20] | 76.79 | 98.1 | A (≥2) | 6.252 | 0.103 | – | – | – | – | – |
| CCCCCCCCC(CCCCCC)CNC(=O)CCCCCN(CCCCCC(=O)NCC(CCCCCC)CCCCCCCC)CCN(CCO)C1CC(O)C1 (stereo not drawn) [Compound 134] | 105.50 | 87.9 | A (≥2) | 6.442 | 0.033 | – | – | – | – | – |
| CCCCCCCCC(CCCCCC)CC(=O)COCCCCN(CCCCCOC(=O)CC(CCCCCC)CCCCCCCC)CCN(CCO)C1CCCC1 (stereo not drawn) [Compound 25] | 74.3 | 96.7 | A (≥2) | 6.334 | 0.032 | – | – | – | – | – |
| CCCCCCCCC(CCCCCCCC)COC(=O)CCCCCN(CCCCCC(=O)OCC(CCCCCCCC)CCCCCCCC)CCN(CCO)C1CCCOC1 (stereo not drawn) [Compound 65] | 63.83 | 93.0 | A (≥2) | 6.544 | 0.066 | – | – | – | – | – |
| CCCCCCC(CCCCCC)COC(=O)CCCCCN(CCCCCC(=O)OCC(CCCCCC)CCCCCC)CCN(CCC)C1CCC(O)CC1 (stereo not drawn) [Compound 72] | 113.9 | 93.5 | A (≥2) | 6.712 | 0.109 | – | – | – | – | – |
| CCCCCCCCCCCOC(=O)CCCCCN(CCCCCC(=O)NCC(CCCCCCCC)CCCCCCCC)CCN(CCO)C1CCCCCC1 [Compound 149] | 72.85 | 86.3 | B (≥1 and <2) | 6.810 | 0.07 | – | – | – | – | – |
| CCCCCCCCC(CCCCCCCC)CC(=O)NCCCCCN(CCCCCNC(=O)CC(CCCCCCCC)CCCCCCCC)CCN(CCO)C1CCCCCC1 [Compound 144] | 64.08 | 95.0 | A (≥2) | 6.794 | 0.035 | – | – | – | – | – |
| CCCCCCCCC(CCCCCC)COC(=O)CCCCCN(CCCCCC(=O)OCC(CCCCCC)CCCCCCCC)CCN(CCC)C1CC(O)C1 (stereo not drawn) [Compound 60] | 68.6 | 92.1 | B (≥1 and <2) | 6.329 | 0.086 | – | – | – | – | – |
| CCCCCCCCC(CCCCCC)COC(=O)CCCCCN(CCCCCC(=O)OCC(CCCCCC)CCCCCCCC)CCN(CCO)C1CCC1 (stereo not drawn) [Compound 35] | 60.58 | 94.8 | C (≥0.1 and <1) | 5.945 | 0.086 | – | – | – | – | – |
| CCCCCCCCC(CCCCCC)COC(=O)CCCCCN(CCCCCC(=O)OCC(CCCCCC)CCCCCCCC)CCN(CCO)C1COC1 (stereo not drawn) [Compound 88] | 66.89 | 97.2 | D (<0.1) | 7.41 | 0.21 | – | – | – | – | – |
| CCCCCCCCC(CCCCCC)COC(=O)CCCCCN(CCCCCC(=O)OCC(CCCCCC)CCCCCCCC)CCN(CC(C)O)C1CCC1 (stereo not drawn) [Compound 32] | 77.76 | 94.3 | C (≥0.1 and <1) | 5.941 | 0.039 | – | – | – | – | – |
| CCCCCCCCC(CCCCCC)COC(=O)CCCCCC(CCCCCC(=O)OCC(CCCCCC)CCCCCCCC)CCCN(C)CCO (stereo not drawn) [Compound 18] | 71.85 | 100.16 | C (≥0.1 and <1) | 6.327 | 0.15 | – | – | – | – | – |
| CCCCCCCCC(CCCCCC)COC(=O)CCCCCC(CCCCCC(=O)OCC(CCCCCC)CCCCCCCC)CN(CC)CCO (stereo not drawn) [Compound 16] | 54.69 | 98.87 | D (<0.1) | 4.403 | 0.225 | – | – | – | – | – |
| CCCCCCCCC(CCCCCC)COC(=O)CCCCCC(CCCCCC(=O)OCC(CCCCCC)CCCCCCCC)CN(C)CCO (stereo not drawn) [Compound 14] | 60.13 | 94.9 | C (≥0.1 and <1) | 9.356 | 0.172 | – | – | – | – | – |
| CCCCCCCC(CCCCCCC)COC(=O)CCCCCN(CCCCCC(=O)OCC(CCCCCCC)CCCCCCC)CCN(CCC)C1CCC(O)CC1 (stereo not drawn) [Compound 71] | 91.13 | 93.0 | A (≥2) | 6.613 | 0.038 | – | – | – | – | – |
| CCCCCCCCC(CCCCCC)CC(=O)NCCCCCN(CCCCCNC(=O)CC(CCCCCC)CCCCCCCC)CCN(CCO)C1CCC1 (stereo not drawn) [Compound 105] | 92.4 | 93.3 | A (≥2) | 6.698 | 0.042 | – | – | – | – | – |
| CCCCCCCCCCC(CCCCCC)COC(=O)CCCN(CCCC(=O)OCC(CCCCCC)CCCCCCCCCC)CCN(CCO)C1CCC1 (stereo not drawn) [Compound 41] | 64.04 | 97.5 | C (≥0.1 and <1) | 5.93 | 0.054 | – | – | – | – | – |
| CCCCCCCCC(CCCCCC)COC(=O)CCCCN(CCCCC(=O)OCC(CCCCCC)CCCCCCCC)CCN(CCO)C1CCC1 (stereo not drawn) [Compound 36] | 70.36 | 98.3 | A (≥2) | 5.907 | 0.065 | – | – | – | – | – |
| CCCCCCCCC(CCCCCCCC)COC(=O)CCCCCN(CCCCCC(=O)OCC(CCCCCCCC)CCCCCCCC)CCN(CCO)C1CCC1 [Compound 50] | 67.68 | 94.90 | A (≥2) | 6.143 | 0.085 | – | – | – | – | – |
